Experimental data published in patent US11591328B2 (XIAMEN BIOTIME BIOTECHNOLOGY CO., LTD., priority 2018, dated 2023).

Key:
[1] = biological target: CSF1R (Homo sapiens (Human), UniProt P07333); test: CSF1R kinase activity test (HTRF); type: biochemical; settings: ATP 8 μM
Method: In a 384-well plate, add 10 nL of the test compound to each well with the Echo 550 sample loading device. […] Use this buffer to adjust the concentration of CSF1R to 0.02 ng/ul. Add 5 μL of buffer containing CSF1R to the 384-well plate after centrifugation at 1000 g for 30 seconds and incubate at room temperature for 10 minutes. […] The inhibition rate of each point is obtained by the following formula: […]
Wherein, Ratiopositive: the experimental positive control None; Ratiovehicle: is the test value of 0.1% DMSO. With the compound concentration and inhibition rate on the abscissa and ordinate, the curve was drawn, and the curve was fitted with Graphpad 5.0 software and the IC50 was calculated.

[2] = biological target: c-Kit (Homo sapiens (Human), UniProt P10721); test: c-Kit kinase activity test (Caliper mobility shift assay); type: biochemical
Chain of c-Kit (P10721 26-976): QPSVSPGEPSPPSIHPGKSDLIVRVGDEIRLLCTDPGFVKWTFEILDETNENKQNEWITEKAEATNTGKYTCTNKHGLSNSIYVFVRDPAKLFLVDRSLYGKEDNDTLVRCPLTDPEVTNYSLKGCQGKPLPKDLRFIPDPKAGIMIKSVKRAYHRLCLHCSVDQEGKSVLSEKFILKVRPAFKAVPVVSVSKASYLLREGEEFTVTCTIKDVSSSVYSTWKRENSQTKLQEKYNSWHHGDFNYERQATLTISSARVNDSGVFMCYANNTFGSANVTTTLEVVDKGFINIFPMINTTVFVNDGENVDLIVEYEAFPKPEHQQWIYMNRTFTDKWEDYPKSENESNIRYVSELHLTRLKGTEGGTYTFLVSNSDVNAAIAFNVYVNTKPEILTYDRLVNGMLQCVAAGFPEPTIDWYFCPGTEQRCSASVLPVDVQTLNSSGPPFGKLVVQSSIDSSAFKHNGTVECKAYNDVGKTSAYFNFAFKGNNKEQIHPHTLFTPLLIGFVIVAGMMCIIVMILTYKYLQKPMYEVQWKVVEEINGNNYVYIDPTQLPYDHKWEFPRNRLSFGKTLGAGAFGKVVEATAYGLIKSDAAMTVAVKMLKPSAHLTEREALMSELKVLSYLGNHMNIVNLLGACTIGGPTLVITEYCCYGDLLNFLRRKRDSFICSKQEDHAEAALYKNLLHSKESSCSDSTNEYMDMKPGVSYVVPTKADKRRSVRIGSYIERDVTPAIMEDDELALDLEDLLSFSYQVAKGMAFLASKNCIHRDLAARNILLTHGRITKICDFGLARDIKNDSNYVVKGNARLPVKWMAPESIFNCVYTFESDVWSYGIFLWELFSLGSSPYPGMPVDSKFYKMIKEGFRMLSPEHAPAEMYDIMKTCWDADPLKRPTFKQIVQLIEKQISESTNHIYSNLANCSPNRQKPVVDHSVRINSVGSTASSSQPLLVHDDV
Method: (§1) Caliper mobility shift assay was used to determine the kinase activities of c-Kit, PDGFRα, PDGFRβ, and FLT-3.
(§2) The final concentration of the kinase and its corresponding substrate (ATP and peptide substrate P2 or P22) during the experiment is as follows:
(§3) Add 5 μL of compound (10% DMSO) at 5 times the final concentration of the reaction to a 384-well plate. Add 10 μL of 2.5×enzyme solution and incubate for 10 minutes at room temperature, then add 10 μL of 2.5×substrate (ATP and peptide substrate, P2 or P22). After incubating at 28° C. for 60 minutes, add 25 μL stop solution to stop the reaction. Read conversion rate data on Caliper EZ Reader II (Caliper Life Sciences). Convert the conversion rate into inhibition rate data (% inhibition rate=(max−sample conversion rate)/(max−min)×100). Where max refers to the conversion rate of the DMSO control, and min refers to the conversion rate of the control without enzyme activity. Draw a curve with compound concentration and inhibition rate on the abscissa and ordinate, use XLFit excel add-in version 4.3.1 software to fit the curve and calculate IC50.

[3] = Pharmacokinetic evaluation in CD-1 mice, gavage; type: in vivo; settings: 10 mg/kg, plasma; for bioavailability / Cmax / half-life: mouse, po; for half-life: read-out: T½ (converted)
Excerpt: Using mice as the test animals, the LC/MS/MS method was used to determine that the mice were intragastrically administered the compound of Example 1, the compound of Example 2, the compound of Example 3, the compound of Example 4, the compound of Example 10, and the compound of Example 14. Compound, the concentration of the drug in the plasma at different times after the compound of Example 26. Study the pharmacokinetic behavior of the compound of the present invention in mice and evaluate its pharmacokinetic characteristics.
The test animals were CD-1 mice, purchased from Shanghai Slack Laboratory Animal Co., Ltd.
Weigh a certain amount of drug, add 5% volume of DMSO or DMAc, 5% volume of PEG400 and 90% volume of normal saline to prepare 1.0 mg/mL colorless, clear and transparent liquid or uniformly dispersed suspension.
CD-1 mice were fasted overnight and then administered by gavage. The dosage was 10 mg/kg and the dosage was 10 mL/kg.
Gavage the mice before and after administration at 0.25, 0.5, 1.0, 2.0, 4.0, 6.0, 8.0, 24.0 hours to collect 0.1 mL of blood, place it in a K2-EDTA anticoagulation tube, and centrifuge at 3500 rpm for 10 minutes. Plasma, stored at −20° C.
To determine the content of the test compound in mouse plasma after gavage of different concentrations of drugs: take 20 uL of mouse plasma at each moment after administration, add propranolol and tolbutamide (each 100 ng/mL) 200 uL of acetonitrile solution, vortex for 5 minutes, centrifuge for 12 minutes (4000 rpm), and take 5 uL of the supernatant from the plasma sample for LC/MS/MS analysis.

[4] = biological target: PDGFRβ (Homo sapiens (Human), UniProt P09619); test: PDGFRβ kinase activity test (Caliper mobility shift assay); type: biochemical
Chain of PDGFRβ (P09619 33-1106): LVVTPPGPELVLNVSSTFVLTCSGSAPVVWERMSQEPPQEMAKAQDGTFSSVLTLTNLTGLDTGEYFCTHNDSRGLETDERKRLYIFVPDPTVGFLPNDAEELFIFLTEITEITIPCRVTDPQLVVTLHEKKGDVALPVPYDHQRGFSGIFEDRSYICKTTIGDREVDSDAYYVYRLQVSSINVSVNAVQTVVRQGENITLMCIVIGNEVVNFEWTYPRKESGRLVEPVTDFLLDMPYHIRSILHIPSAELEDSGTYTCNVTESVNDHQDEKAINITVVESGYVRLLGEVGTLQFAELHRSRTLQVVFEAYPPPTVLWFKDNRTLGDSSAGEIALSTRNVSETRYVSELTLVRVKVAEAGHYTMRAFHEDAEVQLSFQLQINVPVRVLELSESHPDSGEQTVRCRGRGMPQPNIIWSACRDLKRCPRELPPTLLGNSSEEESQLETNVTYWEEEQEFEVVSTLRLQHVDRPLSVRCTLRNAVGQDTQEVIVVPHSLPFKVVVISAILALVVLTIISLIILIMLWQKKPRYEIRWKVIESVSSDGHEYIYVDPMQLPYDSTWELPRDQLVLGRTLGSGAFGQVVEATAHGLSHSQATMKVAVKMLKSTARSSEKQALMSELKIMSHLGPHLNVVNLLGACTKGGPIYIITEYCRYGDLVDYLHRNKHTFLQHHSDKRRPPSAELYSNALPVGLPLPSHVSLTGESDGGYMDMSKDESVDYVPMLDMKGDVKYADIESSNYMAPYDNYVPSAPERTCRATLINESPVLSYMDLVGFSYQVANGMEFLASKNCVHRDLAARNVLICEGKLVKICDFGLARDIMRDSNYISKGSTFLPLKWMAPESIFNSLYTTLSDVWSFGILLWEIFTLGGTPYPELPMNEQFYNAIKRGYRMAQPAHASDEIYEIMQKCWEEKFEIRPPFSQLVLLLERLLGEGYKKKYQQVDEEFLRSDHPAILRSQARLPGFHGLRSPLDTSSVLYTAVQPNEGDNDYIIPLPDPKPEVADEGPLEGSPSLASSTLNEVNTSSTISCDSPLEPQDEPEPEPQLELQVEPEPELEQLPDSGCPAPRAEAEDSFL
Method: as §1, §2, §3

[5] = biological target: FLT-3 (Homo sapiens (Human), UniProt P36888); test: FLT-3 kinase activity test (Caliper mobility shift assay); type: biochemical
Chain of FLT-3 (P36888 27-993): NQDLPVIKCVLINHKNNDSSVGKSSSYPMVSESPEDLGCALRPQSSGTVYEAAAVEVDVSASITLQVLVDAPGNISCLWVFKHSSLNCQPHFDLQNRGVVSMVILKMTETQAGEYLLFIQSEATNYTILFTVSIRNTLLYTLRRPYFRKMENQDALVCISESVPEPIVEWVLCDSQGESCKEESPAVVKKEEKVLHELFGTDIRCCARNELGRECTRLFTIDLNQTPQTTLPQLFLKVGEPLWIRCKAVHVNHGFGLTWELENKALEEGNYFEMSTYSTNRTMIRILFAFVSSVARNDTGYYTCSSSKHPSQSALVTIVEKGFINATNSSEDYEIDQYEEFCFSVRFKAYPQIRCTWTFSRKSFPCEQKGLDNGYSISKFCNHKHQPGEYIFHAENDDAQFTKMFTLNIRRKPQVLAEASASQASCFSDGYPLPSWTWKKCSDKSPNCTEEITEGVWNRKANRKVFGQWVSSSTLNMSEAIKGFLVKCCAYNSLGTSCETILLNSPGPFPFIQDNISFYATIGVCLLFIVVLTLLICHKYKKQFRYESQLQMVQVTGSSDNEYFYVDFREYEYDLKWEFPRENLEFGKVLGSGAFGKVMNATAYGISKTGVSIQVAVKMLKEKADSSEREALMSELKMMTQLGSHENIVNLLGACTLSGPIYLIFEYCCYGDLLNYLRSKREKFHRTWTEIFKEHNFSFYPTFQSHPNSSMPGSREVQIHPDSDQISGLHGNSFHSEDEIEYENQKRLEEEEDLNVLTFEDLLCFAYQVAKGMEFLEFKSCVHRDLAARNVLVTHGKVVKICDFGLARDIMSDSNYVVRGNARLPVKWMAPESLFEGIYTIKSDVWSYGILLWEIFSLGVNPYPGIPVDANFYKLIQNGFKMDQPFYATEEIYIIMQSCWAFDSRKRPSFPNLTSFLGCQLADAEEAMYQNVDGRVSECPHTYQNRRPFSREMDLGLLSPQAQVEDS
Method: as §1, §2, §3

[6] = biological target: FMS (Homo sapiens (Human), UniProt P07333)
Chain of FMS (P07333 20-972): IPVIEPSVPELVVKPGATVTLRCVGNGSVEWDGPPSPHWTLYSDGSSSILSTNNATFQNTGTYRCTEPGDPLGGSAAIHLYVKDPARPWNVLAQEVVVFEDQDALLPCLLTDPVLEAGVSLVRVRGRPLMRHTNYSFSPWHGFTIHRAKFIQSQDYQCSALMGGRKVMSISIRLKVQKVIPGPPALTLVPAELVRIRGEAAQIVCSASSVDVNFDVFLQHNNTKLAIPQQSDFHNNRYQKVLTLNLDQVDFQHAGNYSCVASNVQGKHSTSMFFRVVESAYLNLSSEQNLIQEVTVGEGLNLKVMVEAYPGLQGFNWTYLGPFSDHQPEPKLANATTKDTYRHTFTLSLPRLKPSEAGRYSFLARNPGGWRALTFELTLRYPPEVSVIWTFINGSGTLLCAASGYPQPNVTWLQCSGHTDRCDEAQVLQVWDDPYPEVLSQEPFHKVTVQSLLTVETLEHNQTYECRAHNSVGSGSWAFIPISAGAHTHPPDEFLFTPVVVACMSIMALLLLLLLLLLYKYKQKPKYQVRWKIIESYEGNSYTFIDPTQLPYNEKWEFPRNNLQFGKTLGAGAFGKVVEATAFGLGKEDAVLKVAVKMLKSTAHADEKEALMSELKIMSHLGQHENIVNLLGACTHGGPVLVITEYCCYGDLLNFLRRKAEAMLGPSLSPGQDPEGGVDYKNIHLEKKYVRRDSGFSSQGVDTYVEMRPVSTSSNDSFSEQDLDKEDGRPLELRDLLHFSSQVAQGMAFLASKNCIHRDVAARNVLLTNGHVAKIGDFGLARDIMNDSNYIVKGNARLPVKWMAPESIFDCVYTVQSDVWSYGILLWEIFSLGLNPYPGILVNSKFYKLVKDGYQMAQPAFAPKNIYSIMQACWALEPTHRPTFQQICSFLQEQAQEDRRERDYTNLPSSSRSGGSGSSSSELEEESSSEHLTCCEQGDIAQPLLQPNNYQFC
Method: Place the culture plate in a cell incubator and incubate for 4 hours. […] Add the diluted recombinant human MCSF to a 24-well plate at 100 μL per well, mix quickly and incubate in an incubator for 4 minutes.

Chain of CSF1R (P07333 20-972, species assumed): as the sequence (P07333 20-972) above

Row | IC50 [2] | IC50 [4] | Structure (SMILES) | IC50 [1] | other results
1 |  |  | Cn1cc(-c2cc(Oc3ccc(NC(=O)N4CCC5(CCCC5(F)F)C4=O)nc3)ccn2)cn1 (stereo not shown) [Compound 8] | 2.3 nM | 
2 | 5 nM |  | Cn1cc(-c2cc(Oc3ccc(NC(=O)N4CCC5(CCC(F)(F)C5)C4=O)nc3)ccn2)cn1 (stereo not shown) [Compound 25] |  | 
3 | 3.5 nM | 2860 nM | Cn1cc(-c2cc(Oc3ccc(NC(=O)N4CCC5(CCC5)C4=O)nc3)ccn2)cn1 [Compound 1] |  | AUC [3]: 26.6 µg·h/mL; bioavailability [3]: 100%; Cmax [3]: 3390 ng/mL; half-life [3]: 164 min; IC50 [5]: > 10 µM
4 |  |  | Cn1cc(-c2cc(Oc3ccc(NC(=O)N4CCC5(CCCO5)C4=O)nc3)ccn2)cn1 (stereo not shown) [Compound 7] | 2.7 nM | 
5 | 11 nM | 719 nM | Cn1cc(-c2cc(Oc3ccc(NC(=O)N4CCC5(CCC(=O)C5)C4=O)nc3)ccn2)cn1 (stereo not shown) [Compound 19] |  | IC50 [5]: > 10 µM
6 |  |  | Cc1ncc(-c2cc(Oc3ccc(NC(=O)N4CCC5(CCC(F)(F)CC5)C4=O)nc3)ccn2)s1 [Compound 23] | 5.3 nM | 
7 |  |  | Cn1cc(-c2cc(Oc3ccc(NC(=O)N4CCC5(CCCCC5F)C4=O)nc3)ccn2)cn1 (stereo not shown) [Compound 9] | 2.1 nM | 
8 |  |  | CN1CCC(c2ccc(-c3cc(Oc4ccc(NC(=O)N5CCC6(CCC(F)(F)CC6)C5=O)nc4)ccn3)cc2)CC1 [Compound 22] | 6.7 nM | 
9 |  |  | Cn1cc(-c2cc(Oc3ccc(NC(=O)N4CCC5(CCOCC5)C4=O)nc3)ccn2)cn1 [Compound 5] | 9.1 nM | 
10 | 4.5 nM | 2810 nM | Cn1cc(-c2cc(Oc3ccc(NC(=O)N4CCC5(CC(F)(F)C5)C4=O)nc3)ccn2)cn1 [Compound 26] |  | AUC [3]: 48.3 µg·h/mL; bioavailability [3]: 79%; Cmax [3]: 4490 ng/mL; half-life [3]: 403 min; IC50 [5]: > 10 µM
11 |  |  | CCc1nc(NC(=O)N2CCC3(CCC(F)(F)CC3)C2=O)ccc1Oc1ccnc(-c2cnn(C)c2)c1 [Compound 16] | 6.4 nM | 
12 | 16 nM | 783 nM | Cn1cc(-c2cc(Oc3ccc(NC(=O)N4CCC5(CCC(F)(F)CC5)C4=O)nc3)ccn2)cn1 [Compound 4] |  | AUC [3]: 38.8 µg·h/mL; bioavailability [3]: 100%; Cmax [3]: 5270 ng/mL; half-life [3]: 158 min; IC50 [5]: > 10 µM
13 |  |  | CC(=O)N1CCC2(CC1)CCN(C(=O)Nc1ccc(Oc3ccnc(-c4cnn(C)c4)c3)cn1)C2=O [Compound 12] | 171 nM | 
14 |  |  | Cn1cc(-c2cc(Oc3ccc(NC(=O)N4CCC5(CCCCC5(F)F)C4=O)nc3)ccn2)cn1 (stereo not shown) [Compound 6] | 5.4 nM | 
15 | 29 nM | > 10000 nM | Cc1nc(NC(=O)N2CCC3(CCC3)C2=O)ccc1Oc1ccnc(-c2cnn(C)c2)c1 [Compound 15] |  | IC50 [5]: > 10 µM
16 | 10.1 nM | 7450 nM | O=C(Nc1ccc(Oc2ccnc(-c3cn[nH]c3)c2)cn1)N1CCC2(CCC(F)(F)CC2)C1=O [Compound 21] |  | 
17 |  |  | Cn1cc(-c2cc(Oc3ccc(NC(=O)N4CCC5(CCN(S(C)(=O)=O)CC5)C4=O)nc3)ccn2)cn1 [Compound 13] | 25 nM | 
18 | 20 nM |  | Cn1cc(-c2cc(Oc3ccc(NC(=O)N4CCC5(CCCC(F)(F)C5)C4=O)nc3)ccn2)cn1 (stereo not shown) [Compound 24] |  | 
19 | 8.4 nM | 343 nM | Cn1cc(-c2cc(Oc3ccc(NC(=O)N4CCC5(CCCC(F)(F)C5)C4=O)nc3)ccn2)cn1 (stereo not shown) [Compound 18] |  | IC50 [5]: 8.63 µM
20 |  |  | Cn1cc(-c2cc(Oc3ccc(NC(=O)N4CCC5(CC5)C4=O)nc3)ccn2)cn1 [Compound 10] | 0.55 nM | AUC [3]: 21.3 µg·h/mL; bioavailability [3]: 64%; Cmax [3]: 2240 ng/mL; half-life [3]: 311 min; EC50 [6]: 4 nM
21 | 17 nM | > 10000 nM | Cc1nc(NC(=O)N2CCC3(CCC(F)(F)CC3)C2=O)ccc1Oc1ccnc(-c2cnn(C)c2)c1 [Compound 14] |  | AUC [3]: 20.3 µg·h/mL; bioavailability [3]: 67.3%; Cmax [3]: 1400 ng/mL; half-life [3]: 355 min; IC50 [5]: > 10 µM
22 |  |  | Cn1cc(-c2cc(Oc3ccc(NC(=O)N4CCC5(CCNCC5)C4=O)nc3)ccn2)cn1 [Compound 11] | 300 nM | 
23 |  |  | Cn1cc(-c2cc(Oc3ccc(NC(=O)N4CCC5(CCCC(O)C5)C4=O)nc3)ccn2)cn1 (stereo not shown) [Compound 17] | 6.5 nM | 

Row | Structure (SMILES) | IC50 [2] | IC50 [4] | IC50 [1] | other results
24 | Cn1cc(-c2cc(Oc3ccc(NC(=O)N4CCC5(CCCCC5)C4=O)nc3)ccn2)cn1 [Compound 2] | 5.4 nM | 1580 nM | 6.2 nM | AUC [3]: 6.1 µg·h/mL; bioavailability [3]: 71.5%; Cmax [3]: 860 ng/mL; half-life [3]: 188 min
25 | Cn1cc(-c2cc(Oc3ccc(NC(=O)N4CCC5(CCCC5)C4=O)nc3)ccn2)cn1 [Compound 3] | 2.6 nM | 1620 nM | 1.1 nM | AUC [3]: 15.8 µg·h/mL; bioavailability [3]: 89.5%; Cmax [3]: 3200 ng/mL; half-life [3]: 198 min
